Consider two compounds from article PMC4384643 (Molecular cell, 2015).

Entries after “also recorded” stand apart in the source; their conditions may differ.

The subject of one test is BAX. The test is described as follows: BAX/BCL-2 co-immunoprecipitation in HeLa cells. It counts as binding. The settings on record: HeLa cells co-expressing full-length BAX and BCL-2; BCL-2 antibody IP.
A further test deals with BCL-2. The settings on record: ref Souers et al., 2013; cited from earlier work.

Consider “BCL-2 L23A: L23A point mutant of BCL-2 protein”, for which, in the test with BAX, the “co-immunoprecipitation of BAX with BCL-2” value is listed as “impaired by L23A mutagenesis of the BCL-2 BH4 domain; also recorded: less effective at co-immunoprecipitating BAX relative to wild-type BCL-2”. Regarding `CC1(C)CCC(CN2CCN(c3ccc(C(=O)NS(=O)(=O)c4ccc(NCC5CCOCC5)c([N+](=O)[O-])c4)c(Oc4cnc5[nH]ccc5c4)c3)CC2)=C(c2ccc(Cl)cc2)C1` [ABT-199], the BCL-2 inhibitory activity entry with BCL-2 is “selective BCL-2 inhibitor”.
